Measurements published in US20070232650A1, “Malate salts, and polymorphs of (3S,5S)-7-[3-amino-5-methyl-piperidinyl]-1-cyclopropyl-1,4-dihydro-8-methoxy-4-oxo-3-quinolinecarboxylic acid” (The Procter & Gamble Company, priority 2006, published 2007).

Legend:
[1] = Solubility of isolated salt forms (salt screen)
[2] = Chemical stability of salt forms; format: physicochemical; settings: upon scale up
Excerpt: Malate salts of 7-[3S-amino-5S-methyl-piperidinyl]-1-cyclopropyl-1,4-dihydro-8-methoxy-4-oxo-3-quinolinecarboxylic acid may be formed and isolated under practical manufacturing conditions. Use of the chiral malate for salt formation (as the racemic mix or the chirally pure forms) may in some instances assist with chiral purification of 7-[3S-amino-5S-methyl-piperidinyl]-1-cyclopropyl-1,4-dihydro-8-methoxy-4-oxo-3-quinolinecarboxylic acid. […] Using the same test methods, the anhydrate forms are shown to pick up moisture and spontaneously convert to the corresponding hydrated form upon exposure to humidity.

Solubility ([1]; water) [µg/mL]	Solubility ([1]; salt screen, Table 1)	Compound	Ease of Isolation (degradation) [2]
< 1000		COc1c(N2C[C@@H](C)C[C@H](N)C2)ccc2c(=O)c(C(=O)O)cn(C3CC3)c12 [Freebase, (3S,5S)-7-[3-amino-5-methyl-piperidinyl]-1-cyclopropyl-1,4-dihydro-8-methoxy-4-oxo-3-quinolinecarboxylic acid]	
	9000 µg/mL	Fumarate	
	12 (hemi- mg/ml	COc1c(N2C[C@@H](C)C[C@H](N)C2)ccc2c(=O)c(C(=O)O)cn(C3CC3)c12 (racemic) [DL-malate, hemi-hydrate, (3S,5S)-7-[3-amino-5-methyl-piperidinyl]-1-cyclopropyl-1,4-dihydro-8-methoxy-4-oxo-3-quinolinecarboxylic acid]	

Compound	Solubility ([1]; water) [µg/mL]	Solubility ([1]; salt screen, Table 1)	Ease of Isolation (degradation) [2]
O=C(O)[C@H]1OC(O)[C@H](O)[C@@H](O)[C@@H]1O (stereo partly drawn) [D-Glucuronate]		8000 µg/mL	Degradation
